This note sets out measurements from patent US7009053B2, “Quinoline derivatives as caspase-3 inhibitor, preparation for producing the same and pharmaceutical composition comprising the same” (Yungjin Pharmaceuticals Co., Ltd., priority 2002, dated 2006).

Type in all cases: biochemical
In one test the target is T1, Caspase-1 (Homo sapiens, UniProt P29466).
T1 construct: purchased BIOMOL Research Laboratories Inc; host or cells: E. coli
T1 sequence (P29466 120-297 limits assumed): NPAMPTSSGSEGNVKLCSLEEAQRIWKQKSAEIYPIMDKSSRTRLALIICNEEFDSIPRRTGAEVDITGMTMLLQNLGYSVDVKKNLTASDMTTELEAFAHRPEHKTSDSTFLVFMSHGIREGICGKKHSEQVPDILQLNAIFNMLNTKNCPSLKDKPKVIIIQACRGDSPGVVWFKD
T1 sequence (P29466 317-404 limits assumed): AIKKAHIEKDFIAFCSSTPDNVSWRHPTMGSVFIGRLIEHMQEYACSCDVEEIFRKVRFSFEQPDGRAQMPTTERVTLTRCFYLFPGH
As to the kind of experiment: Assay of selective inhibitory activity, caspase-1. The conditions noted are these: read-out: IC50 against caspase-1. As to the method: (§1) To investigate the selectivity on caspase enzyme subtypes, the inhibitory effects of the compounds of this invention on several other members of the caspase family, caspase-1, 6, 7 and 8 were evaluated.
(§2) After 1 hr incubation at 37° C., the release of AFC (7-amino-4-trifluoromethyl-coumarin) was monitored in a fluorometric plate reader (Victor 1420). The excitation and emission wavelengths were 400 nm and 510 nm, respectively. Isotherms from three assays were calculated by computerized nonlinear regression analysis (GraphPad Prism Program, San Diego, Calif.) to yield IC50 values. Caspase-1, 6, 7 and 8 were purchased from BIOMOL Research Laboratories Inc. (Plymouth Meeting, Pa., USA).
(§3) Coumarin-based fluorogenic substrates for each enzyme were obtained from Sigma/RBI (St. Louis, Mo., USA). The compound used in the assay was 8-amino-4-(3-morpholine-4-yl-propylamino)-quinoline-3-carboxylic acid ethyl ester. The enzymatic activity of caspase-1, 6, 7 or 8 was determined by the same procedures as for the caspase-3 assay, except for enzyme or substrate (Table 2).

In the next test the target is T2, Caspase-8 (Homo sapiens, UniProt Q14790).
T2 construct: purchased BIOMOL Research Laboratories Inc; host or cells: E. coli
As to the kind of experiment: Assay of selective inhibitory activity, caspase-8. As to conditions: read-out: IC50 against caspase-8. As to the method: as §1, §2, §3

For the next test, the target named is T3, Caspase-7 (Homo sapiens, UniProt P55210).
T3 construct: purchased BIOMOL Research Laboratories Inc; host or cells: E. coli
T3 sequence (P55210 24-198 limits assumed): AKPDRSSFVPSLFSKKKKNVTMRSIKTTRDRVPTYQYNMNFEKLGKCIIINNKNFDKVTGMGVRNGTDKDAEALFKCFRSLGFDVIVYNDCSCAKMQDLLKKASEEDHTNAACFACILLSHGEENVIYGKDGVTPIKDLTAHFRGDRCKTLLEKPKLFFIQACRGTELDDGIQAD
T3 sequence (P55210 207-303 limits assumed): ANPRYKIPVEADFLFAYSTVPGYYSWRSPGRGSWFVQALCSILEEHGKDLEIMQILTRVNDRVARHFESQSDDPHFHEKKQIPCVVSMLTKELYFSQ
In words: Assay of selective inhibitory activity, caspase-7. As to conditions: read-out: IC50 against caspase-7. As to the method:
as §1, §2, §3

In test [1] the target is T4, human recombinant caspase-3 enzyme (Homo sapiens, UniProt P42574).
T4 construct: each cDNA encoding p12 and p17 subunits of caspase-3 was PCR-amplified respectively and subcloned into a pET3-a expression vector; made in house; host or cells: E. coli BL21 (DE3), pET3-a vector
T4 sequence (P42574 29-175 limits assumed): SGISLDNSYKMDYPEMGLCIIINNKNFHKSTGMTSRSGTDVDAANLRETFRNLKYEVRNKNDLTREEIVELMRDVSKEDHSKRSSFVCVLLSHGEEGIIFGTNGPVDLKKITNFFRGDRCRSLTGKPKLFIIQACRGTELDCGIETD
T4 sequence (P42574 176-277 limits assumed): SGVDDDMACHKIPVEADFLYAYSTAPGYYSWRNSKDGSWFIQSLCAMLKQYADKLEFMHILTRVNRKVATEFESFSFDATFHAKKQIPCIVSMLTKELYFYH
In words: Enzyme assay of caspase-3 inhibition (fluorogenic Ac-DEVD-AFC substrate). As to conditions: for inhibition at 20 µM: caspase-3 activity. As to the method: The active form of human recombinant caspase-3 enzyme was prepared from Escherichia coli (E.coli) heterologous expression system as described previously (Rotonda J. et al., Nat Struct Biol 3(7): 617–25, 1996). Briefly, each cDNA encoding p12 and p17 subunits of caspase-3 was PCR-amplified respectively and subcloned into a pET3-a expression vector (Novagen), which was followed by transfection into E. coli strain BL21 (DE3). The bacterial cultures (0.5 liters for each transfectant) were grown at 37° C. until logarithmic phase of cell growth and isopropyl-1-thio-β-D-galactopyranoside (IPTC) (Pharmacia) was then added to a final concentration of 0.5 mM. After 3 hr of incubation, the bacteria were pelleted and lysed in a lysis buffer (20 mM Tris hydrochloride pH 8.0, 1 mM EDTA, 2 mM dithiothreitol (DTT), 100 mM NaCl, 200 ug/ml of lysozyme) through sonication. After centrifugation, the pellets from each transfectants were dissolved in 6 M urea and were mixed and rapidly diluted 50 fold in 100 mM HEPES/KOH (pH 7.5), 10% sucrose, 0.1% CHAPS, 0.5 M NaCl, 10 mM DTT. The concentration of protein was determined with the Bradford method (Bio-Rad), with bovine serum albumin as the standard. To verify whether expected size of proteins were obtained, the cell lysates from each cDNA transfectants were analyzed on 14% SDS PAGE and visualized with Coomassie blue staining.
200 ul of the following assay solution was contained in each well of 96-well plate: 20 mM HEPES/KOH (pH 7.5), 10% sucrose, 10 mM DTT, 0.2 mM EDTA, 0.1% CHAPS, 200 ng of enzymes, and 2.5 uM of the substrate. The fluorogenic substrate […]-Asp-Glu-Val-Asp-7-amino-4-trifluoromethylcoumarin (Ac-DEVD-AFC) was purchased from Sigma (St Louis, Mo.) and dissolved in DMSO as a 2.5 mM stock solution and kept at −20° C. before use.
After 1 hr incubation at 37° C., the release of AFC (7-amino-4-trifluoromethyl-coumarin) was monitored in a fluorometric plate reader (Victor 1420). The excitation and emission wavelengths were 400 nm and 510 nm, respectively. The inhibitory effects of compounds on enzyme activities were determined with 2, 20 or 200 uM concentrations of the test compound run in triplicate tubes, and isotherms from three assays were calculated by computerized nonlinear regression analysis (GraphPad Prism Program, San Diego, Calif.) to yield IC50 values.

The next test addresses T5, Caspase-6 (Homo sapiens, UniProt P55212).
T5 construct: purchased BIOMOL Research Laboratories Inc; host or cells: E. coli
T5 sequence (P55212 24-179 limits assumed): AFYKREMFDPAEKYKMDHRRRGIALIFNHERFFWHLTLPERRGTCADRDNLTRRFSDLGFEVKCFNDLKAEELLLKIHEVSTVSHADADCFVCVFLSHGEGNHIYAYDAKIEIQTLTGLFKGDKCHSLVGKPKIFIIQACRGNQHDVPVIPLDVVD
T5 sequence (P55212 194-293 limits assumed): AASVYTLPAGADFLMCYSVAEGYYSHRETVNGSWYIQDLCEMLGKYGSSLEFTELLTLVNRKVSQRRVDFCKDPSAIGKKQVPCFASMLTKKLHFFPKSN
In words: Assay of selective inhibitory activity, caspase-6. As to conditions: read-out: IC50 against caspase-6. As to the method:
as §1, §2, §3

Where [2] appears, read: caspase-3, Table 1, tested at 2, 20 or 200 uM, read-out: IC50.

pIC50: −log10 of the molar value. Like-named read-outs stand apart in the source and are kept apart here. A value given as a limit tells only on which side of the number the result lay.

T2 sequence (Q14790 217-374 limits assumed): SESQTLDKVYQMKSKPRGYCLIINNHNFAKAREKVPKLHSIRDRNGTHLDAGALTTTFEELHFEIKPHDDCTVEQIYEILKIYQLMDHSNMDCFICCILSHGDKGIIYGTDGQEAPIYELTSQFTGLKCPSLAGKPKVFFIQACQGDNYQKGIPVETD
T2 sequence (Q14790 385-479 limits assumed): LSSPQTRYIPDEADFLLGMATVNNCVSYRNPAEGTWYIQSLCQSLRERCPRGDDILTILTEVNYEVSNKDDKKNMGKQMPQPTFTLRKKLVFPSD

Broadly, the pIC50 is the negative decadic logarithm of the IC50, by convention in mol/L. One may read the inhibition as the drop in the measured response relative to a control, in per cent. In the case of `CCOC(=O)c1cnc2c(N)cccc2c1NCCCN1CCOCC1` [Example 22, 8-Amino-4-(3-morpholin-4-yl-propylamino)-quinoline-3-carboxylic acid ethyl ester], the pIC50 at Caspase-1 was at most 3.70; at Caspase-8, at most 3.70; on Caspase-7, 4.83; in test [1] (setting [2]) it was 4.86; in test [1] (selectivity study, text b424, read-out: IC50 against caspase-3), 5.25; at Caspase-6, at most 3.70. Moreover, in test [1], the inhibition at 20 µM turned out to be 92.3%. The “inhibitory activity against caspase-3 (in words)” value in test [1] (compared to the reference compound) was “superior activity”.

In the case of `CCOC(=O)c1cnc2c(N)cccc2c1NCc1cccc(OC)c1` [Example 34, 8-Amino-4-(3-methoxy-benzylamino)-quinoline-3-carboxylic acid ethyl ester], the pIC50 in test [1] (setting [2]) is 4.80. Besides, the inhibition at 20 µM in test [1] was found to be 83.9%.

For `CCOC(=O)c1cnc2c(N)cccc2c1NCc1ccccc1OC` [Example 32, 8-Amino-4-(2-methoxy-benzylamino)-quinoline-3-carboxylic acid ethyl ester], the pIC50 in test [1] (setting [2]) was 4.77. For the same molecule, the inhibition at 20 µM in test [1] was 82.9%.
